≈ marks a conversion by molar mass, not a printed value. Counter-ions that a name gives are not always drawn. Like-named read-outs stand apart in the source and are kept apart here.
Assay: Saline solubility at 1.00 mg/mL and 0.50 mg/mL (with pH by indicator paper)
Format: physicochemical
Conditions: for pH at 1.00 mg/mL of MGCD290 in saline: final concentration of hydroxamate 1 1.00 mg/mL, pH indicator paper; for solubility at 1 h: saline or isotonic, thermodynamic from solid, centrifuged, soluble = no precipitate formed
Protocol: Assays were performed to determine the saline solubility at 1.00 and 0.50 mg/ml and the stability of certain of the prodrug compounds of Examples 1-111. The following procedures were used.
Step 1. Sample preparation. An amount of the compound sample was precisely weighed to correspond to around 5 mg of the hydroxamate of compound 1, taking into account the mass of the leaving group and the salt factor if applicable. The sample was placed in a 16×125 mm glass screw cap tube. Saline was added so that the final concentration of hydroxamate 1 was 1.00 mg/mL. The pH was measured with pH indicator paper. The tube was shaken for 1 hour on a Vortex apparatus then centrifuged at 3000 rpm (1800 rcf) for 5 minutes. If the compound example was soluble (no precipitate formed) the procedure continued to step 2. If a precipitate formed then the sample was diluted with saline so that the final concentration of the hydroxamate of compound 1 was 0.50 mg/mL, and the shaking and centrifuging steps were repeated. If the compound example was soluble (no precipitate formed) the procedure continued to step 2. If a precipitate formed the sample was discarded. Step 2. HPLC analysis. A 500 μL aliquot of a sample solution prepared according to Step 1 was taken up into a 1.5 mL injection vial to which was added 500 μL of saline. The vial was shaken on a Vortex apparatus, injected into the HPLC instrument (UV detection, zero time point) and the retention time and purity of the sample compound were determined. The injection was repeated after 6 hours and 24 hours, and a comparison was made of the retention time, peak areas and level of degradation (if any) using the GDADI50 method.

[1] = 1.00 mg/mL as hydroxamate 1, shaken 1 hour, read-out: Soluble at 1.00 mg/mL of MGCD290 (Y/N)
[2] = 0.50 mg/mL as hydroxamate 1, shaken 1 hour, read-out: Soluble at 0.5 mg/mL of MGCD290 (Y/N)

| SMILES | pH at 1.00 mg/mL of MGCD290 in saline | solubility at 1 h [1] [µg/mL] | solubility at 1 h [2] [µg/mL] |
| --- | --- | --- | --- |
| COCCOCCOCCOCCOCCOCC(=O)N1CCC(CC(=O)ONC(=O)Cc2ccc(CCCCc3ccccc3)cc2)CC1 [Compound 117] | 4.5-5 | > 1000 | – |
| COCCOCCOCCOCCOCC(=O)NCCCC[C@H](NC(=O)COCCOCCOCCOCCOC)C(=O)NCCC(=O)ONC(=O)Cc1ccc(CCCCc2ccccc2)cc1 [Compound 69] | 4.5-5 | > 1000 | – |
| COCCOCCOCCOCCOCC(=O)NCC1(C(=O)ONC(=O)Cc2ccc(CCCCc3ccccc3)cc2)CC1 [Compound 56] | 4.5-5 | < 1000 | < 500 |
| COCCOCCOCC(=O)NCCCC[C@H](NC(=O)COCCOCCOC)C(=O)N1CCC[C@H]1C(=O)ONC(=O)Cc1ccc(CCCCc2ccccc2)cc1 [Compound 107, N,N′-((S)-6-Oxo-6-((S)-2-((2-(4-(4-phenylbutyl)phenyl)acetamidooxy)carbonyl)pyrrolidin-1-yl)hexane-1,5-diyl)bis(2-(2-(2-methoxyethoxyl)ethoxy)acetamide)] | 4.5-5 | > 1000 | – |
| COCCOCCOCC(=O)NCCCC[C@H](NC(=O)COCCOCCOC)C(=O)NCC1(C(=O)ONC(=O)Cc2ccc(CCCCc3ccccc3)cc2)CC1 [Compound 162] | 4.5-5 | > 1000 | – |
| COCCOCCOCCOCCOCCOCC(=O)NCC1(C(=O)ONC(=O)Cc2ccc(CCCCc3ccccc3)cc2)CC1 [Compound 57] | 4.5-5 | < 1000 | < 500 |
| CC(C)OC(=O)ONC(=O)Cc1ccc(CCCCc2ccccc2)cc1 [Compound 76, N-(isopropoxycarbonyloxy)-2-(4-(4-phenylbutyl)phenyl)acetamide] | 4.5-5 | < 1000 | < 500 |
| COCCOCCOCC(=O)N1CCC(CC(=O)ONC(=O)Cc2ccc(CCCCc3ccccc3)cc2)CC1 [Compound 115] | 4.5-5 | < 1000 | < 500 |
| CCNC(=O)ONC(=O)Cc1ccc(CCCCc2ccccc2)cc1 [Compound 74] | 4.5-5 | < 1000 | < 500 |
| CC(=O)NCCCC[C@H](NC(C)=O)C(=O)NCCC(=O)ONC(=O)Cc1ccc(CCCCc2ccccc2)cc1 [Compound 66] | 4.5-5 | < 1000 | < 500 |
| COCCOCC(=O)NCCCC[C@H](NC(=O)COCCOC)C(=O)NCC1(C(=O)ONC(=O)Cc2ccc(CCCCc3ccccc3)cc2)CC1 [Compound 161] | 4.5-5 | < 1000 | < 500 |
| COCCOCCOCC(=O)N1CCN(C(=O)CCC(=O)ONC(=O)Cc2ccc(CCCCc3ccccc3)cc2)CC1 [Compound 124] | 5-5.5 | > 1000 | – |
| COCCOCCOCCOCCOCCOCC(=O)NCC[C@H](NC(=O)COCCOCCOCCOCCOCCOC)C(=O)NCCC(=O)ONC(=O)Cc1ccc(CCCCc2ccccc2)cc1 [Compound 150] | 4.5-5 | < 1000 | < 500 |
| COCCOCCOCC(=O)NCCC(=O)ONC(=O)Cc1ccc(CCCCc2ccccc2)cc1 [Compound 60] | 4.5-5 | < 1000 | < 500 |
| CC(=O)OCC(=O)NCC[C@H](NC(=O)COC(C)=O)C(=O)NCCC(=O)ONC(=O)Cc1ccc(CCCCc2ccccc2)cc1 [Compound 151] | 4.5-5 | < 1000 | < 500 |
| NCCNCC(=O)NCCCC(=O)ONC(=O)Cc1ccc(CCCCc2ccccc2)cc1 [Compound 133, 2-(2-Aminoethylamino)-N-(4-oxo-4-(2-(4-(4-phenylbutyl)phenyl)acetamidooxy)butyl) acetamide dihydrochloride] | 4.5-5 | < 1000 | < 500 |

| SMILES | pH at 1.00 mg/mL of MGCD290 in saline | solubility at 1 h [1] [µg/mL] | solubility at 1 h [2] [µg/mL] |
| --- | --- | --- | --- |
| COCCOCC(=O)NC[C@H](NC(=O)COCCOC)C(=O)NCCC(=O)ONC(=O)Cc1ccc(CCCCc2ccccc2)cc1 [Compound 145] | 4.5-5 | < 1000 | < 500 |
| COCCOCCOCCOCCOCCOCC(=O)NCCC(=O)ONC(=O)Cc1ccc(CCCCc2ccccc2)cc1 [Compound 62] | 4.5-5 | < 1000 | < 500 |
| CCOC(=O)CNC(=O)ONC(=O)Cc1ccc(CCCCc2ccccc2)cc1 [Compound 75] | 4.5-5 | < 1000 | < 500 |
| O=C1COCCOCCOCC(=O)N[C@H](C(=O)NCCC(=O)ONC(=O)Cc2ccc(CCCCc3ccccc3)cc2)CCCCN1 [Compound 84] | 4.5-5 | < 1000 | < 500 |
| COCCOCCOCCOCCOCC(=O)NCC[C@H](NC(=O)COCCOCCOCCOCCOC)C(=O)NCCC(=O)ONC(=O)Cc1ccc(CCCCc2ccccc2)cc1 [Compound 149] | 4.5-5 | < 1000 | < 500 |
| O=C(Cc1ccc(CCCCc2ccccc2)cc1)NOC(=O)CC1CC1 [Compound 52C] | – | < 1000 | < 500 |
| O=C(Cc1ccc(CCCCc2ccccc2)cc1)NOC(=O)CCC1CCCC1 [Compound 51] | – | < 1000 | < 500 |
| Cl.O=C(Cc1ccc(CCCCc2ccccc2)cc1)NOC(=O)C1CCNCC1 [Compound 118, 2-(4-(4-phenylbutyl)phenyl)-N-(piperidine-4-carbonyloxy)acetamide hydrochloride] | 4-4.5 | < 1000 | < 500 |
| COCCOCCOCCOCCOCCOCC(=O)NCCCC[C@H](NC(=O)COCCOCCOCCOCCOCCOC)C(=O)NCCCC(=O)ONC(=O)Cc1ccc(CCCCc2ccccc2)cc1 [Compound 103] | 4.5-5 | > 1000 | – |
| CC(=O)OCC(=O)NCCC[C@H](NC(=O)COC(C)=O)C(=O)NCCC(=O)ONC(=O)Cc1ccc(CCCCc2ccccc2)cc1 [Compound 157] | 4.5-5 | < 1000 | < 500 |
| COCCOCCOCC(=O)NC[C@H](NC(=O)COCCOCCOC)C(=O)NCCC(=O)ONC(=O)Cc1ccc(CCCCc2ccccc2)cc1 [Compound 143] | 4.5-5 | < 1000 | < 500 |
| COCCOCCOCCNC(=O)CN(CC(=O)NCCOCCOCCOC)C(=O)CCC(=O)ONC(=O)Cc1ccc(CCCCc2ccccc2)cc1 [Compound 95, 4-oxo-N,N-bis (12-oxo-2,5,8-trioxa-11-azatridecan-13-yl)-4-(2-(4-(4-phenylbutyl)phenyl)acetamidooxy)butanamide] | 4.5-5 | < 1000 | 500 to 1000 (≈ 634 to 1270 µM) |
| COCCC(=O)ONC(=O)Cc1ccc(CCCCc2ccccc2)cc1 [Compound 52B] | – | < 1000 | < 500 |
| CC(=O)ONC(=O)Cc1ccc(CCCCc2ccccc2)cc1 [Compound 52D] | – | < 1000 | < 500 |
| COCCOCC(=O)NCC[C@H](NC(=O)COCCOC)C(=O)NCCC(=O)ONC(=O)Cc1ccc(CCCCc2ccccc2)cc1 [Compound 163] | 4.5-5 | < 1000 | < 500 |
| COCCOCCOCC(=O)N1CC(CCCC(=O)ONC(=O)Cc2ccc(CCCCc3ccccc3)cc2)C1 [Compound 128B] | 5.5-6 | < 1000 | < 500 |

Source: patent US20150203517A1, “Prodrugs of Compounds that Enhance Antifungal Activity and Compositions of Said Prodrugs” (priority 2014, published 2015)
